Measured values reported in ChEMBL document CHEMBL5331051, “Cationic, amphipathic small molecules based on a triazine-piperazine-triazine scaffold as a new class of antimicrobial agents” (Eur J Med Chem, 2022).
Active and inactive are the calls of the source. The calls are words filed in the database; no cut-off is given here.

Legend:
[1] = tested on: Pseudomonas aeruginosa; test: Additive antibacterial activity against multidrug-resistant Pseudomonas aeruginosa CCARM 2095 strain assessed as ciprofloxacin fractional inhibitory concentration by checkerboard assay; type: functional
[2] = tested on: Pseudomonas aeruginosa; test: Additive antibacterial activity against multidrug-resistant Pseudomonas aeruginosa CCARM 2095 strain assessed as fractional inhibitory concentration index in presence of oxacillin by checkerboard assay; type: functional
[3] = tested on: Pseudomonas aeruginosa; test: Additive antibacterial activity against multidrug-resistant Pseudomonas aeruginosa CCARM 2095 strain assessed as Oxacillin MIC by checkerboard assay; type: functional
[4] = tested on: Staphylococcus aureus; test: Additive antibacterial activity against methicillin-resistant Staphylococcus aureus CCARM 3089 strain assessed as oxacillin MIC by checkerboard assay; type: functional
[5] = tested on: Staphylococcus aureus; test: Additive antibacterial activity against multidrug-resistant Staphylococcus aureus CCARM 3089 strain assessed as fractional inhibitory concentration index in presence of ciprofloxacin by checkerboard assay; type: functional
[6] = tested on: Staphylococcus aureus; test: Antibacterial activity against methicillin-resistant Staphylococcus aureus CCARM 3089 strain assessed as bacterial growth inhibition by checkerboard assay; type: functional
[7] = tested on: Pseudomonas aeruginosa; test: Antibiofilm activity against multidrug-resistant Pseudomonas aeruginosa assessed as inhibition of biofilm formation; type: functional
[8] = tested on: Staphylococcus aureus; test: Additive antibacterial activity against methicillin-resistant Staphylococcus aureus CCARM 3089 strain assessed as bacterial growth inhibition in presence of oxacillin by checkerboard assay; type: functional
[9] = tested on: Pseudomonas aeruginosa; test: Additive antibacterial activity against multidrug-resistant Pseudomonas aeruginosa CCARM 2095 strain assessed as chloramphenicol fractional inhibitory concentration by checkerboard assay; type: functional
[10] = tested on: Pseudomonas aeruginosa; test: Additive antibacterial activity against multidrug-resistant Pseudomonas aeruginosa CCARM 2095 strain assessed as ciprofloxacin MIC by checkerboard assay; type: functional
[11] = tested on: Pseudomonas aeruginosa; test: Additive antibacterial activity against multidrug-resistant Pseudomonas aeruginosa CCARM 2095 strain assessed as oxacillin fractional inhibitory concentration by checkerboard assay; type: functional
[12] = tested on: Pseudomonas aeruginosa; test: Additive antibacterial activity against multidrug-resistant Pseudomonas aeruginosa CCARM 2095 strain assessed as bacterial growth inhibition in presence of ciprofloxacin by checkerboard assay; type: functional
[13] = tested on: Pseudomonas aeruginosa; test: Additive antibacterial activity against multidrug-resistant Pseudomonas aeruginosa CCARM 2095 strain assessed as bacterial growth inhibition in presence of oxacillin by checkerboard assay; type: functional
[14] = tested on: Cell membrane; test: Induction of cell membrane depolarization in Staphylococcus aureus assessed as increase in fluorescence intensity at 2 times MIC by DiSC3(5) dye based fluorescence assay
[15] = tested on: Lipopolysaccharide (LPS); test: Binding affinity to Escherichia coli O111:B4 lipopolysaccharide assessed as suppression of FTIC labeled LPS binding to mouse RAW264.7 cells at 20 ug/ml pretreated LPS with cells for 1 hr followed by compound addition measured after 1 hr by flow cytometer assay (reference value: 48.12%); type: cell-based; details: dose 20.0 µg/ml
[16] = tested on: Staphylococcus aureus; test: Additive antibacterial activity against methicillin-resistant Staphylococcus aureus CCARM 3089 strain assessed as bacterial growth inhibition in presence of chloramphenicol by checkerboard assay; type: functional
[17] = tested on: Lipopolysaccharide (LPS); test: Binding affinity to Escherichia coli O111:B4 lipopolysaccharide assessed as suppression of FTIC labeled LPS binding to mouse RAW264.7 cells at 20 ug/ml pretreated with LPS followed by compound addition by flow cytometer assay (reference value: 67.4%); type: cell-based; details: dose 20.0 µg/ml
[18] = tested on: Staphylococcus aureus; test: Additive antibacterial activity against methicillin-resistant Staphylococcus aureus CCARM 3089 strain assessed as bacterial growth inhibition in presence of ciprofloxacin by checkerboard assay; type: functional
[19] = tested on: Staphylococcus aureus; test: Additive antibacterial activity against methicillin-resistant Staphylococcus aureus CCARM 3089 strain assessed as ciprofloxacin MIC by checkerboard assay; type: functional
[20] = tested on: Cell membrane; test: Induction of cell membrane depolarization in Staphylococcus aureus assessed as increase in fluorescence intensity at 2 times MIC by SYTOX green staining based analysis
[21] = tested on: Staphylococcus aureus; test: Additive antibacterial activity against methicillin-resistant Staphylococcus aureus CCARM 3089 strain assessed as chloramphenicol MIC by checkerboard assay; type: functional
[22] = tested on: Lipopolysaccharide (LPS); test: Displacement of BODIPY-TR-cadaverine from Escherichia coli O111:B4 lipopolysaccharide assessed as increase in fluorescence at 5 ug/ml by fluorescence based assay; details: dose 5.0 µg/ml
[23] = tested on: Cell membrane; test: Induction of outer membrane permeabilization in Escherichia coli KCTC 1682 assessed as increase in fluorescence intensity at 2 to 8 ug/ml by NPN staining based analysis; details: dose 2-8 µg/ml
[24] = tested on: Pseudomonas aeruginosa; test: Additive antibacterial activity against multidrug-resistant Pseudomonas aeruginosa CCARM 2095 strain assessed as fractional inhibitory concentration in presence of chloramphenicol by checkerboard assay; type: functional
[25] = tested on: Pseudomonas aeruginosa; test: Additive antibacterial activity against multidrug-resistant Pseudomonas aeruginosa CCARM 2095 strain assessed as bacterial growth inhibition in presence of chloramphenicol by checkerboard assay; type: functional
[26] = tested on: Pseudomonas aeruginosa; test: Additive antibacterial activity against multidrug-resistant Pseudomonas aeruginosa CCARM 2095 strain assessed as bacterial growth inhibition by checkerboard assay; type: functional
[27] = tested on: Pseudomonas aeruginosa; test: Additive antibacterial activity against multidrug-resistant Pseudomonas aeruginosa CCARM 2095 strain assessed as chloramphenicol MIC by checkerboard assay; type: functional
[28] = tested on: Cell membrane; test: Induction of inner membrane permeabilization in Escherichia coli ML-35 assessed as increase in […] at 2 times MIC by ONPG staining based analysis
[29] = tested on: Staphylococcus aureus; test: Additive antibacterial activity against multidrug-resistant Staphylococcus aureus CCARM 3089 strain assessed as fractional inhibitory concentration index in presence of chloramphenicol by checkerboard assay; type: functional
[30] = tested on: Pseudomonas aeruginosa; test: Additive antibacterial activity against multidrug-resistant Pseudomonas aeruginosa CCARM 2095 strain assessed as fractional inhibitory concentration in presence of oxacillin by checkerboard assay; type: functional
[31] = tested on: Pseudomonas aeruginosa; test: Antibiofilm activity against multidrug-resistant Pseudomonas aeruginosa assessed as biofilm eradication; type: functional
[32] = tested on: Pseudomonas aeruginosa; test: Additive antibacterial activity against multidrug-resistant Pseudomonas aeruginosa CCARM 2095 strain assessed as fractional inhibitory concentration in presence of ciprofloxacin by checkerboard assay; type: functional
[33] = tested on: Pseudomonas aeruginosa; test: Additive antibacterial activity against multidrug-resistant Pseudomonas aeruginosa CCARM 2095 strain assessed as fractional inhibitory concentration index in presence of ciprofloxacin by checkerboard assay; type: functional
[34] = tested on: Cell membrane; test: Induction of cell membrane depolarization in Staphylococcus aureus assessed as fluorescence intensity at 2 to 16 times MIC by DiSC3(5) dye based fluorescence assay; type: subcellular
[35] = tested on: Pseudomonas aeruginosa; test: Additive antibacterial activity against multidrug-resistant Pseudomonas aeruginosa CCARM 2095 strain assessed as fractional inhibitory concentration index in presence of chloramphenicol by checkerboard assay; type: functional

CC[C@H](C)[C@H](NC(=O)[C@H](CCCCN)NC(=O)[C@H](CCC(=O)O)NC(=O)[C@H](CCCCN)NC(=O)[C@H](CO)NC(=O)[C@H](CCCCN)NC(=O)[C@H](CCCNC(=N)N)NC(=O)[C@H](Cc1ccccc1)NC(=O)[C@H](Cc1ccccc1)NC(=O)[C@H](CC(=O)O)NC(=O)CNC(=O)[C@H](CC(C)C)NC(=O)[C@@H](N)CC(C)C)C(=O)NCC(=O)N[C@@H](CCCCN)C(=O)N[C@@H](CCC(=O)O)C(=O)N[C@@H](Cc1ccccc1)C(=O)N[C@@H](CCCCN)C(=O)N[C@@H](CCCNC(=N)N)C(=O)N[C@H](C(=O)N[C@H](C(=O)N[C@@H](CCC(N)=O)C(=O)N[C@@H](CCCNC(=N)N)C(=O)N[C@H](C(=O)N[C@@H](CCCCN)C(=O)N[C@@H](CC(=O)O)C(=O)N[C@@H](Cc1ccccc1)C(=O)N[C@@H](CC(C)C)C(=O)N[C@@H](CCCNC(=N)N)C(=O)N[C@@H](CC(N)=O)C(=O)N[C@@H](CC(C)C)C(=O)N[C@H](C(=O)N1CCC[C@H]1C(=O)N[C@@H](CCCNC(=N)N)C(=O)N[C@H](C(=O)N[C@@H](CCC(=O)O)C(=O)N[C@@H](CO)C(=O)O)[C@@H](C)O)C(C)C)[C@@H](C)CC)C(C)C)[C@@H](C)CC [CATHELICIDIN]
FIC [1]: 0.25
fractional inhibitory concentration index (FICI) [2]: 0.75
MIC [3]: 512 µg/mL
MIC [4]: 256 µg/mL
fractional inhibitory concentration index (FICI) [5]: 0.75
MIC [6]: 64 µg/mL
MBEC50 [7]: 14.2 µM
MBEC90 [7]: 28.5 µM
MBIC [7]: >7 µM
MBIC50 [7]: 3.6 µM
MIC [8]: 32 µg/mL
FIC [9]: 0.5
MIC [10]: 256 µg/mL
FIC [11]: 0.5
MIC [12]: 16 µg/mL
MIC [13]: 8 µg/mL
Activity [14]: Active
Flu intensity [15]: 18.3%
MIC [16]: 32 µg/mL
Flu intensity [17]: 10.4%
MIC [18]: 32 µg/mL
MIC [19]: 128 µg/mL
Activity [20]: Active
MIC [21]: 64 µg/mL
Activity [22]: inactive
Activity [23]: Active
FIC [24]: 0.5
MIC [25]: 16 µg/mL
MIC [26]: 32 µg/mL
MIC [27]: 512 µg/mL
Activity [28]: Active
fractional inhibitory concentration index (FICI) [29]: 0.675
FIC [30]: 0.25
MBEC50 [31]: 14.2 µM
MBEC90 [31]: 28.5 µM
FIC [32]: 0.5
fractional inhibitory concentration index (FICI) [33]: 0.75
Activity [34]: inactive
fractional inhibitory concentration index (FICI) [35]: 1
